From article PMC7756582, “Prodrugs of γ‐Alkyl‐Modified Nucleoside Triphosphates: Improved Inhibition of HIV Reverse Transcriptase” (Angewandte Chemie (International Ed. in English), 2020)
Like-named read-outs stand apart in the source and are kept apart here.

Experiments:
[1] = Enzyme-catalyzed hydrolysis in human CD4+ T-lymphocyte CEM cell extracts; assay type: in vitro ADME; conditions: for half-life at 0.86 mM: CEM/0 cell extracts (CD4+ T-lymphocytes), human CD4+ T-lymphocyte CEM cell extracts, 37 °C, read-out: CEM/0 cell extracts t 1/2 (converted)
Procedure: The stability of prodrugs 6 and the γ‐alkyl‐NTPs 7 was further investigated in human CD4 ^+ T‐lymphocyte CEM cell extracts. […] Thus, an enzymatic cleavage reaction took place. Half‐lives as low as 0.4 h (6 az) to 5.2 h (6 dz) were determined. […] This is in accordance to our previous results for the DiPPro‐[ ^17 , ^18 ] or the TriPPPro‐compounds 5.[ ^22 , ^23 ] In all cases we observed the predominant formation of γ‐alkyl‐d4TTPs 7 and d4TDP 2 d in very low concentration (Figure 2 B) but no NTP formation was detected, in contrast to the studies using the previously described TriPPPro compounds 5.[ ^23 , ^24 ] However, the difference to the compounds bearing long lipophilic acyl groups was not very pronounced (2‐ to 3‐fold). In the case of γ‐(AB‐C4,alkyl‐C18)‐d4TTP 6 cz, γ‐C18‐d4TTP 7 z was detected as the main product. After 8 h incubation, the ratio of γ‐C18‐d4TTP 7 z and d4TDP 2 d was 5:1. This was in sharp contrast to the studies performed with TriPPPro compounds 5.[ ^23 , ^24 ] There, it was almost impossible to detect significant concentrations of d4TTP due to its fast dephosphorylation to form first d4TDP and finally d4TMP 2 m. […] The formation of thymine or d4TTP 2 t from γ‐C18‐d4TTP 7 z was not detected (Supporting Information, Figure SI2).
(§1) ProLab 300 from Schott Co.. Thermomixer: Eppendorf Thermomixer 5436 and CellMedia Thermoschüttler basic were used. […]
Enzyme-catalyzed hydrolysis of γ-(AB,alkyl)-d4TTPs 6, γ-alkyl-d4TTPs 7,15 and TriPPPros 5 in CEM cell extracts:
18 µL of the appropriate 50 mM DMSO-d6 stock solution was diluted to 6.0 mM hydrolysis solution by addition of 132.0 µL DMSO-d6.
7-10 different samples including 10 µL water and 10 µL hydrolysis solution were prepared in 2 mL Eppendorf® vials. The reaction was started by addition of 50 µL human CEM cell extract and the mixture was incubated at 37 °C for different time periods. The reactions were stopped by addition of 150 μL MeOH. The solution was kept on ice for 5 min followed by centrifugation for 5 min (13000 rpm).
The supernatants were filtered (Chromafil® RC-20/15 MS, 0.2 μm) and stored in liquid nitrogen. When testing, the samples were defrosted and injection volume with 80 μL was used for HPLC analysis. The calculation of t1/2 was performed analogously to that for the chemical hydrolysis studies.
(§2) Preparation of cell extracts: Human CD4+ T-lymphocyte CEM cells were grown in RPMI-1640-based cell culture medium to a final density of ~3·10^6 cells/ml. Then, cells were centrifuged for 10 min at 1,250 rpm at 4 °C, washed twice with cold PBS, and the pellet was re-suspended at 10^8 cells/ml and sonicated (Hielscher Ultrasound Techn., 100% amplitude, 3·times for 10 sec) to destroy cell integrity. The resulting cell suspension was then centrifuged at 10,000 rpm to remove cell debris, and the supernatant divided in aliquots before being frozen at -80 C and used.

HIV-1(IIIB) = assay: Anti-HIV activity assay, HIV-1-infected wild-type CEM/0 cell cultures; assay type: cell-based; conditions: Human immunodeficiency virus 1, IIIB, CCRF-CEM, read-out: EC50 CEM/0 HIV-1
Procedure: γ‐(AB,alkyl)‐d4TTP prodrugs 6 and the γ‐alkyl‐d4TTPs 7 were evaluated for their ability to inhibit the replication of HIV in HIV‐1‐ or HIV‐2‐infected wild‐type CEM/0 as well as mutant thymidine‐kinase‐deficient CEM cell cultures (CEM/TK^−). For comparison, two TriPPPro derivatives 5 were also included in this assay.
Anti-HIV activity assay: Inhibition of HIV-1(IIIB)- and HIV-2(ROD)-induced cytopathicity in wild-type CEM/0 and thymidine kinase-deficient CEM/TK- cell cultures was measured in microtiter 96-well plates containing ~3·105 CEM cells/mL infected with 100 CCID50 of HIV per milliliter and containing appropriate dilutions of the test compounds. After 4−5 days of incubation at 37 °C in a CO2-controlled humidified atmosphere, CEM giant (syncytium) cell formation was examined microscopically. […]
was defined as the compound concentration required to inhibit HIV-induced giant cell formation by 50%. […]
(§3) The result was visualized by fluorescence imaging. […]
as §3

[2] = Chemical hydrolysis in aqueous phosphate buffer (PBS, pH 7.3); assay type: physicochemical; conditions: for half-life at 0.92 mM: phosphate buffered saline (PBS), read-out: PBS pH 7.3 t 1/2 (converted); for half-life at 0.92 mM / PBS pH 7.3 t 1/2: aqueous 25 mM phosphate buffer, pH 7.3, 37 °C, removal of AB group, n.h. = no hydrolysis observed through cleavage of AB-mask
Procedure: γ‐(AB,alkyl)‐NTP prodrugs 6 and γ‐alkyl‐NTPs 7 were incubated in aqueous phosphate buffer (PBS, 25 mM, pH 7.3), or were exposed to pig liver esterase (PLE) in phosphate buffer (PBS) and to human CD4^+ T‐lymphocyte cell extracts to study their stability and the product distribution. The hydrolysis mixtures were analyzed by means of analytical rp‐18‐HPLC. The calculated half‐lives of prodrugs 6 (Table 1, t 1/2) reflect the removal of the bioreversible AB group to yield γ‐alkyl‐NTPs 7. Possible hydrolysis pathways and products are summarized in Scheme 4.
As hydrolysis products, a predominant formation of γ‐alkyl‐d4TTPs 7 and a very small amount of d4TDP […] was detected (approximately 3 %). After consumption of the starting material, no further increase of d4TDP concentration was observed. This supports the hypothesis that only the double‐γ‐esterified d4TTP prodrugs 6 were prone to a bond breakage between the γ‐ and β‐phosphate. […] In contrast to previous studies with TriPPPro‐NTPs 5 containing a second cleavable mask (first generation NTP prodrugs),[ ^23 , ^24 , ^25 ] no d4TTP was detected in these studies using 6 or 7. A side reaction occurred during the studies using compounds 7 that led to the formation of thymine by the cleavage of the glycosidic bond as reported before.[ ^19 , ^22 ]
as §1
Chemical hydrolysis of prodrugs of γ-(AB,alkyl) d4TTP 6 as well as the γ-alkyl-NTPs 7,15:
Stock solutions (50mM in DMSO-d6) of compounds 6,7 were prepared. After dilution of 11 µL stock solution with 100 µL milliQ water and 189 µL DMSO-d6 to 1.9mM hydrolysis solutions the reaction was started by addition of 300 µL phosphate buffer saline (PBS, 50mM, pH 7.3). The solution was incubated at 37 C in a thermomixer. An initial aliquot (25 µL) was taken directly and analyzed by analytical HPLC at 265-266 nm. Further aliquots were taken for monitoring the kinetic hydrolysis. The exponential decay curves (pseudo-first order) based on absolute integral values were calculated with commercially available software (OriginPro 9.0G) and yielded the half-lives t1/2 of the prodrugs via one determination. […]
The calculation of t1/2 was performed analogously to that for the chemical hydrolysis studies.
as §2
(1 picture or pasted object on this page, not shown here)

[3] = wild-type CEM/0 cells, HIV-1, mean±SD, n=2-3

| Structure (SMILES) | half-life at 0.86 mM [1] | EC50 (HIV-1(IIIB); [3]) | half-life at 0.92 mM [2] | EC50 (HIV-1(IIIB)) | PBS pH 7.3 t 1/2 [2] | calculated half-life in PBS hydrolysis (decrease by thymine formation, cleavage of the glycosidic bond) ([2]; PBS pH 7.3) | stability in cell extracts (in words) ([1]; CEM cell extracts, incubation up to 30 h) |
| --- | --- | --- | --- | --- | --- | --- | --- |
| CCCCCCCCCCCCCCCC(=O)Oc1ccc(COP(=O)(OCCCC)OP(=O)(O)OP(=O)(O)OCC2C=CC(n3cc(C)c(=O)[nH]c3=O)O2)cc1 (stereo not drawn) [6 ew, γ‐(AB‐C15,alkyl‐C4)‐d4TTP] | 2.2 h | 330 ± 110 nM | 198 h |  |  |  |  |
| CCCCOP(=O)(O)OP(=O)(O)OP(=O)(O)OCC1C=CC(n2cc(C)c(=O)[nH]c2=O)O1 (stereo not drawn) [7 w, γ‐C4‐d4TTP] | > 30 h |  |  | 950 ± 510 nM | n.h.^[c] |  |  |
| CCCCCCCCCCCCCCCCCCOP(=O)(O)OP(=O)(O)OP(=O)(O)OCC1C=CC(n2cc(C)c(=O)[nH]c2=O)O1 (stereo not drawn) [7 z, γ‐C18‐d4TTP] | > 30 h |  |  | 110 ± 42 nM | n.h.^[c] | about 1500 h |  |
| Cc1cn(C2C=CC(COP(=O)(O)OP(=O)(O)OP(=O)(O)O)O2)c(=O)[nH]c1=O (stereo not drawn) [2 t, d4TTP, reference compound] |  |  |  | 1050 ± 350 nM |  |  | rapidly enzymatically dephosphorylated |
| CCCCCCCCCCCCCCCCCCOP(=O)(OCc1ccc(OC(=O)CCCC)cc1)OP(=O)(O)OP(=O)(O)OCC1C=CC(n2cc(C)c(=O)[nH]c2=O)O1 (stereo not drawn) [6 cz, γ‐(AB‐C4,alkyl‐C18)‐d4TTP] | 4.8 h | 180 ± 90 nM | 237 h |  |  |  |  |
